Where two headings read alike, the source gives them in different places.
Assays:
[1] = Animal experiments on constipating effect (no method given); type: in vivo; settings: compared with Morphin
männliche NMRI-Mäuse [2] = test: Tail-flick test (radiant heat) in the mouse; type: in vivo, Maus; settings: for ED50: Mus musculus
From the text: (§1) Dazu wurden männliche NMRI-Mäuse mit einem Gewicht von 20 bis 25 g oder weibliche Sprague Dawly-Ratten mit einem Gewicht von 120 bis 160 g verwendet. Die Tiere wurden einzeln in Testkäfige gesetzt und die Schwanzbasis einem fokussierten Wärmestrahl einer elektrischen Lampe (Rhema-Analgesiemeter) ausgesetzt. Die Lampenintensität wurde so eingestellt, daß die Zeit vom Einschalten der Lampe bis zum plötzlichen Wegzucken des Schwanzes (Schmerzlatenz) bei unbehandelten Tieren 3 bis 6 Sekunden betrug. Vor Gabe der erfindungsgemäß zu verwendenden Verbindung wurden die Tiere innerhalb von 5 Minuten zweimal getestet und der Mittelwert dieser Messungen als Vortestmittelwert berechnet. Die Schmerzmessung wurde 20, 40 und 60 Minuten nach intravenöser und 30, 60, 90, 120 Minuten nach oraler Gabe durchgeführt. Bei Anstieg der Schmerzlatenz wurde die maximale Expositionszeit auf 12 Sekunden beschränkt und die Zunahme der Latenzzeit von >150 % des Vortestmittelwerts als analgetische Wirkung gewertet. Zur Bestimmung der Dosisabhängigkeit wurden die Verbindungen in 3 bis 5 logarithmisch ansteigenden Dosen, die jeweils die Schwellen- und die maximale Wirkdosis einschlossen, appliziert und aus der Anzahl der Tiere, die analgetische Wirkung zeigten, nach der Methode von Litchfeld und Wilcoxon (J. Pharm. Ex. Ther. 96, 99 bis 113 (1949)) die ED50-Werte bestimmt. Die ED50-Berechnung erfolgte im Wirkmaximum jeweils 20 Minuten nach intravenöser und jeweils 30 Minuten nach oraler Substanzgabe.
(§2) Die Bestimmung der oralen Wirkverfügbarkeit erfolgte aus dem Verhältnis der ED50-Werte bei i.v.- und p.o.-Gabe. Wirkverfügbarkeit =(ED50 i.v.)/(ED50 p.o.) [formula]

[3] = tested on: weibliche Sprague Dawly-Ratten; test: Tail-flick test (radiant heat) in the rat; settings: for ED50: Rattus norvegicus
From the text: as §1, §2

männliche NMRI-Mäuse [4] = test: Phenylquinone-induced writhing test in the mouse; type: in vivo, Maus
Method: Die Untersuchung auf analgetische Wirksamkeit wurde im Phenylchinon-induzierten Writhing an der Maus (modifiziert nach I. C. Hendershot, J. Forsaith, J. Pharmacol. Exp. Ther. 125, 237 - 240 (1959)) durchgeführt. Dazu wurden männliche NMRI-Mäuse mit einem Gewicht von 25 bis 30 g verwendet. Gruppen von 10 Tieren pro Substanzdosis erhielten 10 Minuten nach intravenöser Gabe und 30 Minuten nach oraler Gabe der erfindungsgemäß zu verwendenden Verbindungen 0,3 ml/Maus einer 0,02 %-igen wäßrigen Lösung des Phenylchinon (Phenylbenzochinon, Fa. Sigma, Deisenhofen; Herstellung der Lösung unter Zusatz von 5 % Ethanol und Aufbewahrung im Wasserbad bei 45° C) intraperitoneal appliziert. Die Tiere wurden einzeln in Beobachtungskäfige gesetzt und mittels Drucktastenzähler die Anzahl der Schmerz-induzierten Streckbewegungen (sogenannte Writhing-Reaktionen = Durchdrücken des Körpers nach Abstrecken der Hinterextremitäten) 5 bis 20 Minuten nach der Phenylchinongabe ausgezählt. Aus der dosisabhängigen Abnahme der Writhing-Reaktionen im Vergleich zu parallel untersuchten, nur mit Phenylchinon behandelten Kontrollgruppen wurden mittels Regressionsanalyse (Auswerteprogramm Martens, EDV-Serivce, Eckental) der ED50-Wert für die Hemmung der Writhing-Reaktlon berechnet.

[5] = tested on: weibliche Sprague Dawly-Ratten; settings: rat, in vivo
From the text: as §1, §2

[6] = iv, 20 min, read-out: ED50-Werte Tail-flick, Ratte i.v.
[7] = po, 0.5 h, read-out: ED50-Werte Tail-flick, Ratte p.o.

| Structure (SMILES) | obstipierende Wirkungen [1] | ED50 (männliche NMRI-Mäuse [2]; iv, 20 min, read-out: ED50-Werte Tail-flick, Maus i.v.) [mg/kg] | ED50 (männliche NMRI-Mäuse [2]; po, 0.5 h, read-out: ED50-Werte Tail-flick, Maus p.o.) [mg/kg] | orale Wirkverfügbarkeit (männliche NMRI-Mäuse [2]; Tail-flick, mouse, (ED50 i.v.)/(ED50 p.o.)) | besser oral verfügbar als Morphin (männliche NMRI-Mäuse [2]; mouse (tail-flick and writhing taken together), relative to Morphin) [mal] | ED50 [3, 6] [mg/kg] | ED50 [3, 7] [mg/kg] | analgetische Wirkung ([3]; Tail-flick test, rat, result in words) | orale Wirkverfügbarkeit ([3]; Tail-flick, rat, (ED50 i.v.)/(ED50 p.o.)) | besser oral verfügbar als Morphin ([3]; rat, tail-flick, relative to Morphin) [mal] | analgetische Wirkung (männliche NMRI-Mäuse [4]; Writhing test, result in words) | orale Wirkverfügbarkeit (männliche NMRI-Mäuse [4]; Writhing, (ED50 i.v.)/(ED50 p.o.)) | ED50 (männliche NMRI-Mäuse [4]; iv, 10 min, i.v., phenylquinone i.p. 10 min after dosing, read-out: ED50-Werte Writhing, Maus i.v.) [mg/kg] | ED50 (männliche NMRI-Mäuse [4]; po, 0.5 h, p.o., phenylquinone i.p. 30 min after dosing, read-out: ED50-Werte Writhing, Maus p.o.) [mg/kg] | orale Wirkverfügbarkeit [5] |
| --- | --- | --- | --- | --- | --- | --- | --- | --- | --- | --- | --- | --- | --- | --- | --- |
| CN(C)C[C@H]1CCCC[C@]1(O)c1cccc(O)c1 [(+)-O-Demethyltramadol] | schwächere obstipierende Wirkungen als Morphin | 1.41 | 3.75 | 0,38 | ~5 | 1.01 | 4.9 | ausgeprägte analgetische Wirkung | 0,21 | ~20 | ausgeprägte analgetische Wirkung | 0,26 | 0.49 | 1.87 |  |
| CN1CC[C@]23c4c5ccc(O)c4O[C@H]2[C@@H](O)C=C[C@H]3[C@H]1C5 [Morphin, reference compound] |  |  |  |  |  | 0.93 | 75 |  |  |  |  |  |  |  | 0,01 |

— EP0870499A1, “Oral use of (+)-0-Demethyltramadol as analgesic” (Grünenthal GmbH, priority 1997, dated 1998)
